Data on eight molecules can be found in patent US20240150330A1, “CHROMANS AND BENZOFURANS AS 5-HT1A AND TAAR1 AGONISTS” (Sunovion Pharmaceuticals Inc., priority 2021, published 2024).

One test has as its target T1, TAAR1 receptor (UniProt Q96RJ0).
T1 sequence (Q96RJ0 1-339): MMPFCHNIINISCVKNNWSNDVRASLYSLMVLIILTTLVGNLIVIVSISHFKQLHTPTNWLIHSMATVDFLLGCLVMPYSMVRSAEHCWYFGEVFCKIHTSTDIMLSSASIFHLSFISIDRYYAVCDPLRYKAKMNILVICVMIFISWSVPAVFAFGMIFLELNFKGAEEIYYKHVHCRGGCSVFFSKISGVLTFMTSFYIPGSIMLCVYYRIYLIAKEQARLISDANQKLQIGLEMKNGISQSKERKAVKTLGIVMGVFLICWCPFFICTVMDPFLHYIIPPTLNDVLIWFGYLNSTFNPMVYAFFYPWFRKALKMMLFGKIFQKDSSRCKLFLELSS
Put plainly: TAAR1 Agonist cAMP Assay. The format is cell-based, human or mouse. The settings on record: CHO-K1 cells expressing TAAR1; cAMP HTRF; 30 minutes at room temperature. As for the experimental part:
CHO-K1 cells expressing the human TAAR1 receptor (Accession number NP_612200.1) or mouse TAAR1 receptor (Accession number NP_444435.1) were grown in media (Advanced DMEM supplemented with 1% dialyzed fetal bovine serum) without antibiotics. The cells were detached by gentle flushing with phosphate buffered saline containing 5 mM EDTA, recovered by centrifugation and resuspended in assay buffer (Krebs-Ringers Henseleit buffer: 5 mM KCl, 1.25 mM MgSO4, 124 mM NaCl, 25 mM HEPES, 13.3 mM Glucose, 1.25 mM KH2PO4, 1.45 mM CaCl2, 0.5 g/L BSA, supplemented with 1 mM isobutylmethylxanthine). Testing was performed in 384-well plates. 5 μl of cells (3000 cells) were mixed with 5 μl of the test compound diluted in assay buffer and then incubated for 30 minutes at room temperature. cAMP levels were determined using the Cisbio cAMP Gs dynamic HTRF kit (Cisbio, Bedford, MA). The results of the testing are shown in Table 3, with EC50 ranges designated as follows: • A=0.1 μM to 1 μM • B=0.01 μM to <0.1 μM • C=0.001 μM to <0.01 μM • D=0.0001 μM to <0.001 μM
A general note: In TR-FRET formats the signal depends on donor and acceptor labels being close together.

Another test deals with T2, human 5-HT1A receptor (Homo sapiens, UniProt P08908).
T2 construct: expressed in transfected cells; host or cells: CHO-K1
T2 sequence (P08908 1-422): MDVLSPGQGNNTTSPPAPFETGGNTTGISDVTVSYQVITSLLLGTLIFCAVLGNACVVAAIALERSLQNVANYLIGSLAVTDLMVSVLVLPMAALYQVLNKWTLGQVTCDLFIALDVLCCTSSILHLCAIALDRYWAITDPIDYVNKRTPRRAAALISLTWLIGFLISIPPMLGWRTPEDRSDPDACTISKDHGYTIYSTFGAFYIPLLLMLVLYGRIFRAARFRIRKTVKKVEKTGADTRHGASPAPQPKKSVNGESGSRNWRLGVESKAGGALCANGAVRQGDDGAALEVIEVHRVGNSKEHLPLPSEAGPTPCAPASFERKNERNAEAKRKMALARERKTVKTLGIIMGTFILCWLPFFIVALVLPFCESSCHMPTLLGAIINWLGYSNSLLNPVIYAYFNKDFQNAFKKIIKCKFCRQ
Description: 5-HT1A Radioligand Binding Assay. The settings on record: 1 μM test compound; competition with 0.9 nM [3H]-8-OH-DPAT; membranes of 5-HT1A expressing CHO-K1 cells. As for the experimental part: Cells expressing the human 5-HT1A receptor were grown to mid-log phase in complete culture medium and then scraped from the culture vessels in ice-cold Ca^2+- and Mg^2+-free Phosphate-buffered saline. The cells were then centrifuged for 10 minutes at 5,000×g and 4° C. and the pellets resuspended in buffer A (15 mM Tris-HCl pH 7.5; 2 mM MgCl2; 0.3 mM EDTA; 1 mM EGTA) and homogenized in a glass-glass homogenizer. The crude membrane fraction was collected by two consecutive centrifugation steps at 35,000×g and 4° C. for 30 minutes separated by a wash step with buffer A. The final membrane pellet was suspended in buffer B (75 mM Tris-HCl pH 7.5; 12.5 mM MgCl2; 0.3 mM EDTA; 1 mM EGTA; 250 mM sucrose) and flash-frozen in liquid nitrogen. Protein content was determined by the BCA method (Interchim, UP40840A).
Radioligand competition binding was performed in duplicate in the wells of a 96 well plate (Master Block, Greiner, 786201) containing binding buffer (50 mM Tris, 5 mM CaCl2, 0.1% ascorbic acid, 10 μg/ml saponin, pH7.4), membrane extracts prepared from the 5-HT1A expressing CHO-K1 cell line (7 μg protein/well), reference tracer (0.9 nM [^3H]-8-OH-DPAT) and test compound in a final volume of 0.1 ml. Nonspecific binding was determined by co-incubation with 200-fold excess of reference competitor (5-HT). The samples were incubated for 1 hour at 25° C., and then filtered over GF/B Unifilter plates (Perkin Elmer 6005177) presoaked in 0.5% PEI, using a Filtermate Harvester (Perkin Elmer, C96162). Filters were washed six times with 0.5 ml ice-cold buffer (50 mM Tris pH 7.4) and 50 μl of Microscint 20 (Packard) were added to each well. The plates were incubated 15 minutes on an orbital shaker and then counted with a TopCount NXT (Packard, C384V01) for 1 minute/well.
Compounds were tested at 1 and 10 μM concentrations, in duplicate: […]

Usually EC50 stands for the midpoint of the concentration-response curve. A word on the inhibition: it is the relative decrease from the control value, in per cent. Low readings indicate a response near the control, high ones a response far below the control. The molecule `CNC[C@H]1CCOc2c(-c3ccncc3)cccc21` [Compound 4, (S)—N-methyl-1-(8-(pyridin-4-yl)chroman-4-yl)methanamine] showed an EC50 on TAAR1 receptor of 100 to 1000 nM. The molecule also had an inhibition at 1 µM on human 5-HT1A receptor greater than 90%.

Turning to `NC[C@@H]1CCOc2c(-c3ccncc3)cccc21` [Compound 1, (R)-(8-(pyridin-4-yl)chroman-4-yl)methanamine], the inhibition at 1 µM at human 5-HT1A receptor is greater than 50%.

`CNC[C@@H]1CCOc2c(-c3ccncc3)cccc21` [Compound 3, (R)—N-methyl-1-(8-(pyridin-4-yl)chroman-4-yl)methanamine]: the EC50 at TAAR1 receptor was in the range of 10 to 100 nM. Also, the inhibition at 1 µM at human 5-HT1A receptor is greater than 50%.

The molecule `NC[C@H]1CCOc2c(-c3ccncc3)cccc21` [Compound 2, (S)-(8-(pyridin-4-yl)chroman-4-yl)methanamine] had an inhibition at 1 µM at human 5-HT1A receptor greater than 90%.

At TAAR1 receptor, `NC[C@@H]1CCOc2c(-c3cccnc3)cccc21` [Compound 22] gave an EC50 of 0.1 to 1 nM.

As for `CNC[C@@H]1CCOc2c(-c3cscn3)cccc21` [Compound 50], the EC50 on TAAR1 receptor was 1 to 10 nM.

`CNC[C@@H]1CCOc2c(-c3ccnnc3)cccc21` [Compound 41] yielded an EC50 at TAAR1 receptor of 10 to 100 nM.

`CNC[C@@H]1CCOc2c(-c3ccc(C)nc3)cccc21` [Compound 14, (R)—N-methyl-1-(8-(6-methylpyridin-3-yl)chroman-4-yl)methanamine] displayed an EC50 at TAAR1 receptor of 1 to 10 nM.
